According to US20250127709A1, “COSMETIC COMPOSITION CONTAINING IRIS GERMANICA ROOT-DERIVED EXOSOMES AS AN ACTIVE INGREDIENT” (PP PRODUITS PRESTIGES SA, priority 2021, published 2025):

What was measured:
Assay type in all cases: cell-based, human
[1] = test system: COL1A1; test: Wrinkle improvement efficacy: COL1A1 mRNA expression in HDFa; conditions: treated with 50 μM, positive control
Method: In order to confirm an anti-aging efficacy of the Iris germanica rhizome-derived exosomes, they were evaluated for their effect on COL1A1 expression by comparing them with the Iris germanica rhizome extracts for each solvent. After inoculating a human dermal fibroblast (HDFa), they were cultured in a culture medium of Fibroblast Basal Medium (Medium 106) containing 100 IU/mL of penicillin and 100 μg/mL of streptomycin under 5% CO2 at 37° C. for 24 hours. After culturing, the medium was discarded, and the Iris germanica rhizome-derived exosomes (stock concentration 9.90×10^9 particles/mL) and the Iris germanica rhizome extracts for each solvent (stock concentration 100 mg/mL) were treated at each concentration and cultured for 48 hours. After culturing, RNA was extracted from the cultured cells using a TransZol reagent, followed by performing RT-PCR (real-time genetic polymerase chain reaction) to measure an amount of mRNA change in collagen, which maintains a skin connective tissue. A product generated by the PCR was identified with a Gel Documentation system by performing electrophoresis on a 1% agarose gel. In this case, a negative control group was treated with PBS, and a positive control group was treated with 50 μM of retinyl palmitate. […]

[2] = test system: MMP-1; test: Wrinkle improvement efficacy: MMP-1 mRNA expression in UVB-irradiated HDFa; conditions: UVB 20 mJ/cm^2, treated with 50 μM, positive control
Method: In order to confirm an anti-aging efficacy of the Iris germanica rhizome-derived exosomes, they were evaluated for their effect on MMP-1 expression by comparing them with the Iris germanica rhizome extracts for each solvent. After inoculating a human dermal fibroblast (HDFa), they were cultured in a culture medium of Fibroblast Basal Medium (Medium 106) containing 100 IU/mL of penicillin and 100 μg/mL of streptomycin under 5% CO2 at 37° C. for 24 hours. After the culture, the medium was discarded, and the Iris germanica rhizome-derived exosomes (stock concentration 9.90×10^9 particles/mL) and the Iris germanica rhizome extracts for each solvent (stock concentration 100 mg/mL) were treated at each concentration and cultured for 48 hours. In order to induce cell damage, the remaining cultured cell groups except for the non-UVB irradiation group were removed from the medium, and then the medium was irradiated with 20 mJ/cm^2 of UVB and replaced with a new medium, which was then cultured for 24 hours. After 24 hours, RNA was extracted from the cultured cells using a TransZol reagent, followed by performing RT-PCR (real-time genetic polymerase chain reaction) to measure an amount of mRNA change in MMP-1, which is related to skin aging and wrinkle formation. A product generated by the PCR was identified with a Gel Documentation system by performing electrophoresis on a 1% agarose gel. […]

[3] = test system: AQP3 (Aquaporin 3); test: Moisturizing efficacy: AQP3 mRNA expression by RT-PCR in HEKa; conditions: treated with 0.01%, positive control
Method: In order to confirm a moisturizing efficacy of the Iris germanica rhizome-derived exosomes, they were evaluated for their effect on AQP3 expression by comparing them with the Iris germanica rhizome extracts for each solvent. After inoculating a human epidermal keratinocyte (HEKa), they were cultured in a culture medium of Dulbecco Modified Eagle Medium (DMEM) supplemented with 100 IU/mL of penicillin and 100 μg/mL of streptomycin under 5% CO2 at 37° C. for 24 hours. After the culture, the medium was discarded, and the iris germanica rhizome-derived exosomes (stock concentration 9.90×10^9 particles/mL) and the iris germanica rhizome extracts for each solvent (stock concentration 100 mg/mL) were treated at each concentration and cultured for 48 hours. Thereafter, RNA was extracted from the cultured cells using a TransZol reagent, followed by performing RT-PCR (real-time genetic polymerase chain reaction) to measure an amount of mRNA change in AQP3 (Aquaporin 3), which is a moisturizing factor involved in moisture movement in the cells and is a protein that plays an important role in skin moisturization. A product generated by the PCR was identified with a Gel Documentation system by performing electrophoresis on a 1% agarose gel. In this case, a negative control group was treated with PBS, and a positive control group was treated with 0.01% of a hyaluronic acid. […]

## CCCCCCCCCCCCCCCC(=O)OC/C=C(C)/C=C/C=C(C)/C=C/C1=C(C)CCCC1(C)C [retinyl palmitate]
[1]
  COL1A1 expression rate: 173.93%
[2]
  MMP-1 expression rate: 72.81%

## hyaluronic acid
[3]
  AQP3 expression rate: 155.69%
